From patent US4965280A, “Antifungal carbinols” (E. I. Du Pont de Nemours and Company, priority 1989, dated 1990)

Tests used:
Assay in all cases: Test C rice paddy
[1] = test system: BARNYARDGRASS; format: in vivo, Echinochloa crusgalli; conditions: Echinochloa crus-galli, 504 h, 21 days, read-out: plant response
Description: (§1) Sixteen cm diameter Airlite plastic pots were partially filled with Tama slit loam soil and the soil saturated with water. Japonica and Indica rice seedlings a the 2.0 to 2.5 leaf stage were transplanted into 1/3 of the pots. Into another third of the pots were transplanted seedling or sprouted tubers of water plantain (Alisma trivale), Scripus (Scirpus paludosus), Cyperus (Cyperus esculentus), and arrowhead (Sagittaria spp.). The remaining pots were planted with barnyardgrass (Echinochloa crusgalli) seeds and sprouted tubes of water chestnut (Eleocharis spp.). These weeds all represent major rice weeds or genera of weeds important in rice. Three to four days after planting, the water level was raised to 3 cm (about 1200 ml/pot) and maintained a this level throughout the test. Chemical treatments were applied directly to the paddy water, within 24 hours of raising the water, after being formulated in a nonphytotoxic solvent. The pots were maintained in the greenhouse.

[2] = test system: WATERCHESTNUT; format: in vivo, Eleocharis spp.; conditions: Eleocharis, 504 h, 21 days, read-out: plant response
Description: as §1

[3] = test system: ARROWHEAD; format: in vivo, Sagittaria spp.; conditions: Sagittaria, 504 h, 21 days, read-out: plant response
Description: as §1

[4] = test system: SCIRPUS; format: in vivo, Scirpus paludosus; conditions: Bolboschoenus maritimus, 504 h, 21 days, read-out: plant response
Description: as §1

[5] = test system: WATER PLAINTAIN; format: in vivo, Alisma trivale; conditions: 504 h, 21 days, read-out: plant response
Description: as §1

[6] = test system: RICE JAP EFF; format: in vivo, Japonica rice; conditions: Oryza sativa, 504 h, 21 days, read-out: plant response
Description: as §1

[7] = test system: RICE INDICA EFF; format: in vivo; conditions: Oryza sativa, 504 h, 21 days, read-out: plant response
Description: as §1

C=C(c1cccc(F)c1)C(O)(Cn1cncn1)c1ccc(F)cc1F (centres unmarked) [Example 18]
30%: pest or weed control at 500 g/ha ([7]; 0500 G/HA)
50%: pest or weed control at 1000 g/ha ([2]; 1000 G/HA) | pest or weed control at 500 g/ha ([6]; 0500 G/HA) | pest or weed control at 1000 g/ha ([7]; 1000 G/HA)
0%: pest or weed control at 64 g/ha ([1]; 0064 G/HA) | pest or weed control at 125 g/ha ([1]; 0125 G/HA) | pest or weed control at 250 g/ha ([1]; 0250 G/HA) | pest or weed control at 64 g/ha ([2]; 0064 G/HA) | pest or weed control at 125 g/ha ([2]; 0125 G/HA) | pest or weed control at 250 g/ha ([2]; 0250 G/HA) | pest or weed control at 64 g/ha ([3]; 0064 G/HA) | pest or weed control at 125 g/ha ([3]; 0125 G/HA) | pest or weed control at 250 g/ha ([3]; 0250 G/HA) | pest or weed control at 64 g/ha ([4]; 0064 G/HA) | pest or weed control at 125 g/ha ([4]; 0125 G/HA) | pest or weed control at 250 g/ha ([4]; 0250 G/HA) | pest or weed control at 500 g/ha ([4]; 0500 G/HA) | pest or weed control at 1000 g/ha ([4]; 1000 G/HA) | pest or weed control at 64 g/ha ([5]; 0064 G/HA) | pest or weed control at 125 g/ha ([5]; 0125 G/HA) | pest or weed control at 250 g/ha ([5]; 0250 G/HA) | pest or weed control at 64 g/ha ([6]; 0064 G/HA) | pest or weed control at 125 g/ha ([6]; 0125 G/HA) | pest or weed control at 250 g/ha ([6]; 0250 G/HA) | pest or weed control at 64 g/ha ([7]; 0064 G/HA) | pest or weed control at 125 g/ha ([7]; 0125 G/HA) | pest or weed control at 250 g/ha ([7]; 0250 G/HA)
70%: pest or weed control at 1000 g/ha ([6]; 1000 G/HA)
20%: pest or weed control at 500 g/ha ([3]; 0500 G/HA) | pest or weed control at 500 g/ha ([5]; 0500 G/HA)
60%: pest or weed control at 1000 g/ha ([1]; 1000 G/HA)
35%: pest or weed control at 1000 g/ha ([3]; 1000 G/HA)
40%: pest or weed control at 500 g/ha ([1]; 0500 G/HA) | pest or weed control at 500 g/ha ([2]; 0500 G/HA) | pest or weed control at 1000 g/ha ([5]; 1000 G/HA)
